Assay results published in PubChem BioAssay AID330 (DTP/NCI, 2004).
Several values for one entry are separate records, joined by “and”; a condition that tells them apart may be missing. Equal entries are not always repeated. Toxic doses and inconclusive results are not listed. How the source made its calls: active means survival T/C of 150% or more; inactive means T/C below 125% in these data.

Tested on: P388 leukemia ip, CD2F1 mice, survival T/C
Assay: NCI In Vivo Anticancer Drug Screen. Data for tumor model P388 Leukemia (intraperitoneal) in CD2F1 (CDF1) mice
Settings: endpoint: median survival time, higher = longer survival
How it was run: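 Mice carrying the transplanted tumor received test compound or vehicle. Survival was recorded in each group, and the value is the treated-group measurement divided by that of the vehicle-treated control group.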

[1] = dose: 25.0 mg/kg/injection, schedule: Q01DX009 (ip), vehicle: Klucel (hydroxypropylcellulose) (HPC)
[2] = dose: 50.0 mg/kg/injection, schedule: Q01DX009 (ip), vehicle: Klucel (hydroxypropylcellulose) (HPC)
[3] = dose: 100.0 mg/kg/injection, schedule: Q01DX009 (ip), vehicle: Klucel (hydroxypropylcellulose) (HPC)
[4] = dose: 200.0 mg/kg/injection, schedule: Q01DX009 (ip), vehicle: Klucel (hydroxypropylcellulose) (HPC)
[5] = dose: 50.0 mg/kg/injection, schedule: Q01DX005 (ip), vehicle: saline with Tween-80
[6] = dose: 100.0 mg/kg/injection, schedule: Q01DX005 (ip), vehicle: saline with Tween-80
[7] = dose: 200.0 mg/kg/injection, schedule: Q01DX005 (ip), vehicle: saline with Tween-80
[8] = dose: 50.0 mg/kg/injection, schedule: Q01DX009 (ip), vehicle: saline with Tween-80
[9] = dose: 100.0 mg/kg/injection, schedule: Q01DX009 (ip), vehicle: saline with Tween-80
[10] = dose: 50.0 mg/kg/injection, schedule: Q01DX009 (ip), vehicle: saline
[11] = dose: 100.0 mg/kg/injection, schedule: Q01DX009 (ip), vehicle: saline
[12] = dose: 200.0 mg/kg/injection, schedule: Q01DX009 (ip), vehicle: saline
[13] = dose: 6.25 mg/kg/injection, schedule: Q01DX009 (ip), vehicle: Klucel (hydroxypropylcellulose) (HPC)
[14] = dose: 12.5 mg/kg/injection, schedule: Q01DX009 (ip), vehicle: Klucel (hydroxypropylcellulose) (HPC)
[15] = dose: 25.0 mg/kg/injection, schedule: Q01DX009 (ip), vehicle: saline with Tween-80
[16] = dose: 12.5 mg/kg/injection, schedule: Q01DX009 (ip), vehicle: saline with Tween-80

Measured: T/C

CCCC[N+](CCCC)=c1ccc2nc3c(C)cc(N(CC)CC)cc3sc-2c1
inactive: dose: 0.75 mg/kg/injection, schedule: Q01DX005 (ip), vehicle: saline 111 % of control | dose: 1.5 mg/kg/injection, schedule: Q01DX005 (ip), vehicle: saline 112 % of control | dose: 3.0 mg/kg/injection, schedule: Q01DX005 (ip), vehicle: saline 118 % of control and 120 % of control

Oc1ccc(N=Cc2cccs2)cc1
inactive: [1] 110 % of control | [2] 100 % of control | [3] 106 % of control | [4] 105 % of control

O=C1c2ccccc2C(=O)c2c(NCCN3CCNCC3)ccc(NCCN3CCNCC3)c21
inactive: dose: 4.0 mg/kg/injection, schedule: Q01DX009 (ip), vehicle: acid diluted with saline 103 % of control | dose: 8.0 mg/kg/injection, schedule: Q01DX009 (ip), vehicle: acid diluted with saline 109 % of control | dose: 12.5 mg/kg/injection, schedule: Q01DX009 (ip), vehicle: water 107 % of control | dose: 16.0 mg/kg/injection, schedule: Q01DX009 (ip), vehicle: acid diluted with saline 120 % of control | dose: 50.0 mg/kg/injection, schedule: Q01DX009 (ip), vehicle: water 123 % of control

COC1(c2ccccc2)C2CCCCC2C2CCCCC21 (stereo not given)
inactive: [5] 100 % of control | [6] 98 % of control | [7] 100 % of control

CC1(C)COC(CC2CCCCC2)=N1
inactive: [8] 104 % of control | dose: 50.0 mg/kg/injection, schedule: Q04DX003 (ip), vehicle: saline with Tween-80 100 % of control | [9] 100 % of control | dose: 100.0 mg/kg/injection, schedule: Q04DX003 (ip), vehicle: saline with Tween-80 104 % of control | dose: 200.0 mg/kg/injection, schedule: Q04DX003 (ip), vehicle: saline with Tween-80 90 % of control

CCOC(=O)Nc1ccc2c(c1[N+](=O)[O-])c1cc([N+](=O)[O-])cc([N+](=O)[O-])c1n2CC
inactive: [5] 98 % of control | [6] 90 % of control | [7] 86 % of control

CN(C)c1cc(N(C)C)c(N(C)C)cc1N(C)C
inactive: [5] 109 % of control | [6] 102 % of control | [7] 100 % of control

O=C(O)C1CSC(c2ccncc2)N1 (stereo not given)
inactive: [10] 96 % of control and 97 % of control | [11] 96 % of control | [12] 94 % of control

O=c1[nH]c(=O)c2cccnc2[nH]1
inactive: [13] 93 % of control | [14] 99 % of control | [1] 121 % of control and 93 % of control | [2] 118 % of control | [3] 99 % of control

COc1cc(C(=O)NOCc2cc3c(cc2Cl)OCO3)cc(OC)c1OC
inactive: dose: 100.0 mg/kg/injection, schedule: Q04DX003 (ip), vehicle: saline sonified 90 % of control | dose: 400.0 mg/kg/injection, schedule: Q04DX003 (ip), vehicle: saline sonified 90 % of control

CCO/C=N\Nc1ccc2nnc(Cl)n2n1
inactive: [10] 92 % of control | [11] 103 % of control | [12] 93 % of control

CCOC(=O)CNC(=O)OC(C)(C)C
inactive: dose: 60.0 mg/kg/injection, schedule: Q01DX005 (ip), vehicle: saline with Tween-80 103 % of control | dose: 120.0 mg/kg/injection, schedule: Q01DX005 (ip), vehicle: saline with Tween-80 100 % of control | dose: 240.0 mg/kg/injection, schedule: Q01DX005 (ip), vehicle: saline with Tween-80 108 % of control

CCCCCCCCCCCCN(CCCCCCCCCCCC)CC(O)c1cc2c(c3ccccc13)CCCC2 (stereo not given)
inactive: [5] 101 % of control | [6] 97 % of control | [7] 101 % of control

O=C1Nc2ccccc2NC(=O)C1(O)O
inactive: dose: 50.0 mg/kg/injection, schedule: Q01DX005 (ip), vehicle: Klucel (hydroxypropylcellulose) (HPC) 100 % of control | dose: 100.0 mg/kg/injection, schedule: Q01DX005 (ip), vehicle: Klucel (hydroxypropylcellulose) (HPC) 101 % of control | dose: 200.0 mg/kg/injection, schedule: Q01DX005 (ip), vehicle: Klucel (hydroxypropylcellulose) (HPC) 101 % of control

Cc1onc(-c2ccccc2Cl)c1C(=O)SCC(=O)Nc1cc(C(F)(F)F)cc(C(F)(F)F)c1
inactive: [8] 98 % of control | [9] 100 % of control | dose: 200.0 mg/kg/injection, schedule: Q01DX009 (ip), vehicle: saline with Tween-80 89 % of control

NS(=O)(=O)/C=C(\Cl)c1ccccc1
inactive: [15] 102 % of control | [8] 94 % of control | [9] 94 % of control

N#CC(Cc1ccccc1)c1ccccc1 (stereo not given)
inactive: dose: 25.0 mg/kg/injection, schedule: Q01DX009 (ip), vehicle: distilled water + Tween-80 95 % of control | dose: 50.0 mg/kg/injection, schedule: Q01DX009 (ip), vehicle: distilled water + Tween-80 110 % of control | dose: 100.0 mg/kg/injection, schedule: Q01DX009 (ip), vehicle: distilled water + Tween-80 93 % of control

CCS(=O)(=O)OCCCCOS(=O)(=O)CC
inactive: [16] 100 % of control and 97 % of control | [15] 103 % of control and 93 % of control | [8] 115 % of control and 90 % of control | [9] 114 % of control and 90 % of control

NC(=O)c1c(Cl)nc2n1CCS2
inactive: dose: 60.0 mg/kg/injection, schedule: Q01DX005 (ip), vehicle: Klucel (hydroxypropylcellulose) (HPC) 94 % of control | dose: 100.0 mg/kg/injection, schedule: Q01DX001 (ip), vehicle: Klucel (hydroxypropylcellulose) (HPC) 107 % of control | dose: 120.0 mg/kg/injection, schedule: Q01DX005 (ip), vehicle: Klucel (hydroxypropylcellulose) (HPC) 95 % of control | dose: 200.0 mg/kg/injection, schedule: Q01DX001 (ip), vehicle: Klucel (hydroxypropylcellulose) (HPC) 100 % of control | dose: 240.0 mg/kg/injection, schedule: Q01DX005 (ip), vehicle: Klucel (hydroxypropylcellulose) (HPC) 88 % of control | dose: 400.0 mg/kg/injection, schedule: Q01DX001 (ip), vehicle: Klucel (hydroxypropylcellulose) (HPC) 109 % of control

CN(C)c1ccc(C(Nc2ccc(S(=O)(=O)Nc3ccccc3)cc2)c2ccc(N(C)C)cc2)cc1
inactive: dose: 100.0 mg/kg/injection, schedule: Q04DX003 (ip), vehicle: Klucel (hydroxypropylcellulose) (HPC) 105 % of control | dose: 200.0 mg/kg/injection, schedule: Q04DX003 (ip), vehicle: Klucel (hydroxypropylcellulose) (HPC) 110 % of control | dose: 400.0 mg/kg/injection, schedule: Q04DX003 (ip), vehicle: Klucel (hydroxypropylcellulose) (HPC) 105 % of control

CN1CCN(C(=O)c2cccc3cccc(C(=O)O)c23)CC1
inactive: dose: 60.0 mg/kg/injection, schedule: Q01DX005 (ip), vehicle: water 103 % of control | dose: 120.0 mg/kg/injection, schedule: Q01DX005 (ip), vehicle: water 93 % of control | dose: 240.0 mg/kg/injection, schedule: Q01DX005 (ip), vehicle: water 100 % of control

Cc1cc(NC(=S)SCc2ccc(Cl)cc2)ccc1Br
inactive: [16] 124 % of control | [15] 119 % of control | [2] 114 % of control and 124 % of control | [8] 124 % of control | dose: 50.0 mg/kg/injection, schedule: Q01DX009 (ip), vehicle: suspension in saline 108 % of control | [3] 118 % of control and 120 % of control | dose: 100.0 mg/kg/injection, schedule: Q01DX009 (ip), vehicle: suspension in saline 101 % of control | [4] 123 % of control | dose: 200.0 mg/kg/injection, schedule: Q01DX009 (ip), vehicle: suspension in saline 113 % of control

CCOC(=O)c1cc2c(OC)c(OC)ccc2cc1N
inactive: dose: 12.5 mg/kg/injection, schedule: Q01DX009 (ip), vehicle: other 100 % of control | dose: 25.0 mg/kg/injection, schedule: Q01DX009 (ip), vehicle: other 103 % of control | dose: 50.0 mg/kg/injection, schedule: Q01DX009 (ip), vehicle: other 100 % of control | dose: 100.0 mg/kg/injection, schedule: Q01DX009 (ip), vehicle: other 115 % of control

S=C1SCN(c2ccc(Br)cc2)CN1c1ccc2[nH]c(=S)sc2c1
inactive: [13] 106 % of control | [14] 113 % of control | [1] 106 % of control

C1CCC2[N-]CCCC2C1.C1CCC2[N-]CCCC2C1.O=[N+]([O-])O.O=[N+]([O-])O.[Cu+2] (stereo not given)
inactive: dose: 7.5 mg/kg/injection, schedule: Q01DX005 (ip), vehicle: saline with Tween-80 99 % of control | dose: 15.0 mg/kg/injection, schedule: Q01DX005 (ip), vehicle: saline with Tween-80 99 % of control

Nc1nnc(SCc2ccccc2)s1
inactive: dose: 3.13 mg/kg/injection, schedule: Q01DX009 (ip), vehicle: saline with Tween-80 102 % of control | dose: 6.25 mg/kg/injection, schedule: Q01DX009 (ip), vehicle: saline with Tween-80 104 % of control | [16] 109 % of control | [15] 103 % of control
